Experimental data: patent publication US6949654B2, “N-alkyl-N-phenylhydroxylamine compounds containing metal chelating groups, their preparation and their therapeutic uses” (Sam-Sung Electronics Co., Ltd., priority 2001, dated 2005)
pIC50: −log10 of the molar value.

Columns and labels:
[1] = test system: soybean phosphatidylcholine liposome; test: Inhibition of lipid peroxidation of a multilayer liposome (TBA method); format: biochemical; details: lipid peroxidation of liposome started with FeCl2, 37° C. 15 minutes, absorbance at 532 nm; read-out: Inhibitor Concentration (IC50)
Procedure: The compounds of the present invention were tested for antioxidant effect in terms of the repression of the radical chain reaction of a multilayer liposome.
The liposome was prepared as followings: 30 mg of commercially available soybean phosphatidylcholine (PC, Sigma Chemical Co., U.S.A.) was dissolved in 1 mL of ethanol, and 200 μL of the ethanol/PC solution was added to 10 mL of 10 mM Tris buffer including 50 mM NaCl (pH 7.0) with stirring.
The ability of a compound to inhibit oxidation of the liposome was evaluated as followings: To 400 μL of the liposomes were added the test compound (in buffer or ethanol) and histidine-FeCl3 (167:33 μM final). Oxidation was initiated by the addition of FeCl2 (33 μM final prepared in nitrogen purged water). The mixtures was shaken at 37° C. for 15 minutes. Thereafter, tubes were treated with 1 mL of 0.67% thiobabituric acid (TBA):10% trichloroacetic acid (2:1, v/v) in 0.25 N HCl solution, containing 1.5% (v/v) t-butylhydroxytoluene (BHT) to terminate oxidation. The aliquots were heated to 100° C. for 20 minutes. After ice cooling, 1 mL of chloroform was added to 1 mL supernatant from tubes and tubes were centrifuged. The absorbances of the resulting supernatant were measured at 532 nm (see: Table 1 below).

[2] = test system: ischemic neuronal degeneration; test: Protection of cell damage by ischemia (in vivo); set-up: species or system Mongolian gerbils (Meriones unguiculatus); details: 60 mg/kg P.O. 30 minutes after ischemic injury (post-treated), 5 min carotid occlusion, 4 days reperfusion, hippocampus
Procedure: Male Mongolian gerbils (Meriones unguiculatus) weighing 80-88 g were used in the present study. Each animal was medicated P.O. with vehicle, Ebselen or various test compounds (60 mg/kg in 10% DMSO), after 30 minutes ischemic injury, respectively. 20 animals were allotted into every group. The animals were placed under general anesthesia with a mixture of 2.5% isoflurane in 33% oxygen and 67% nitrous oxide. A midline ventral incision was made in the neck. Both common carotid arteries were isolated, freed of nerve fibers, and occluded using nontraumatic aneurysm clips. Complete interruption of blood flow was confirmed by observing the central artery in eyeballs using ophthalmoscope. After five minutes of occlusion, the aneurysm clips were removed from both common carotid arteries. Restoration of blood flow (reperfusion) was observed directly under the microscope. Sham-operated controls were subjected to the same surgical procedures except that common carotid arteries were not occluded. Body temperature was monitored and maintained at 37° C.±0.5° C. during surgery and during the immediate postoperative period until the animals recovered fully from anesthesia. […]
Images of staining in the hippocampus of each animal were captured with an Applescanner. […] All data obtained from the quantitative data were analyzed using one-way ANOVA to determine statistical significance. […]

mice = details: oral administration; cited from earlier work
[3] = even in the presence of an excess of glutathione (GSH); cited from earlier work
rats = details: oral administration; cited from earlier work
[4] = Acute toxicity LD50 in rats; details: rat, in vivo

Compound | pIC50 [1] | protective effect against ischemic neuronal degeneration [2] [%] | further results
4-[N-(tert-butyl)-N-hydroxyamino]-N-pyridin-2-yl-methyl-benzamide [Example 3] | 4.96 |  | 
O=c1c2ccccc2[se]n1-c1ccccc1 [Ebselen] |  | 59 | LD50 (mice): ≥ 6,810 mg/kg; solubility in water [3]: very little soluble in water; LD50 (rats): ≥ 6,810 mg/kg
CC(C)(C)N(O)c1ccc(C(=O)Nc2nccs2)cc1 [Example 1, 4-[N-(tert-butyl)-N-hydroxyamino]-N-thiazol-2-yl-benzamide] | 5.84 | 81 | LD50 ([4]; ip, intraperitoneal administration in rats): ≥ 750 mg/kg; LD50 ([4]; oral administration in rats): ≥ 7000 mg/kg
CC(C)(C)N(O)c1ccc(C(=O)Nc2ccccn2)cc1 [Example 2, 4-[N-(tert-butyl)-N-hydroxyamino]-N-pyridin-2-yl-benzamide] | 5.37 |  | 
CC(C)(C)N(O)c1ccc(C(=O)Nc2ccc(O)c3ncccc23)cc1 [Example 4, 4-[N-(tert-butyl)-N-hydroxyamino]-N-(8-hydroxyquinolin-5-yl)-benzamide] | 4.21 |  | 
Cc1c(C)c2c(c(C)c1O)CCC(C)(C(=O)O)O2 (stereo not drawn) [Trolox, reference compound] | 4.99 |  | 
